We go through one molecule from US20150328193A1, “TREATMENT OF MTOR HYPERACTIVE RELATED DISEASES AND DISORDERS” (THE BRIGHAM AND WOMEN'S HOSPITAL, INC., priority 2012, published 2015).

Molecules are shown by their SMILES. pIC50: −log10 of the molar value.

One assay concerns the target protein kinase C (PKC). The settings on record: cited from earlier work.
Assay [1] concerns Tsc2-null mouse embryonic fibroblasts (MEFs). The assay is described as follows: Chelerythrine chloride treatment of Tsc2-null mouse embryonic fibroblasts. The assay is classed as cell-based. Particulars: 10 uM, 30 hours.
The test system of assay [2] is wild-type mouse embryonic fibroblasts (MEFs). The assay is described as follows: Chelerythrine chloride treatment of wild-type mouse embryonic fibroblasts. In kind it is cell-based. The settings on record: 10 uM, 30 hours.
The subject of the next assay is 621-101 cells. The assay is described as follows: Follow-up imaging of cell death/proliferation in 621-101 cells. The assay is classed as cell-based, human. The method, then:
621-101 cells were pretreated for two hours with either DMSO (top two panels) or rapamycin (20 nM) bottom two panels) followed by the addition of fresh DMSO (top left), fresh rapamycin (bottom left), chelerythrine chloride (1 uM, top right), or rapamycin and chelerythrine chloride (bottom right). […] 4× magnification.

Assay [3] concerns 621-101 cells (TSC2-null, derived from a LAM patient). Kind of assay: High-throughput screen of known bioactives in 621-101 cells, ATP levels ([…] GLO) as cell viability, with or without rapamycin pretreatment. The assay is classed as cell-based, human. The method, then:
Rapamycin was used at 20 nM and the screen compounds at 20 uM.
Cells are then pretreated with either Rapamycin (20 nM) or DMSO control in duplicate for two hours. Compound libraries are then added at the ICCB and allowed to incubate for 48-72 h. […] Treatment with staurosporine (1-2 uM) represents a positive control for cell death.
The inventors screened the Known Bioactives Collection at the ICCB which consists of approximately 7,000 compounds.

In the case of `COc1ccc2c(c[n+](C)c3c4cc5c(cc4ccc23)OCO5)c1OC` [chelerythrine chloride], at protein kinase C (PKC), the pIC50 is 6.18. In assay [1], the “Effect on Tsc2-null MEFs” value is “dramatic effect” and the “Selectivity for Tsc2-null versus wild-type MEFs” value is listed as “selective to Tsc2-null cells”. In assay [2], the “Effect on wild-type MEFs” value is given as “minimal effect”. Besides, in the assay with 621-101 cells (24 h, 1 uM, rapamycin 20 nM pretreatment two hours), the “Effect on 621-101 cells in combination with rapamycin” value was “effect on cells is reduced”. Moreover, in the assay on 621-101 cells (24 h post drug exposure, 1 uM, DMSO pretreatment), the 621-101 cell proliferation result is recorded as “inhibits 621-101 cell proliferation”. The 621-101 cell proliferation result in the assay on 621-101 cells (96 h post drug exposure) is reported as “inhibits 621-101 cell proliferation”. Besides, the “Effect alone versus in combination with rapamycin (single agent potential)” value in assay [3] (Rapamycin 20 nM, screen compounds 20 uM) is given as “protected by rapamycin”. Also, the “Inducing cell death in TSC2-null LAM cells as single agent” value in assay [3] (used individually in the absence of rapamycin) is “surprisingly effective at inducing cell death”.
